Results from ChEMBL document CHEMBL4431297 (Medchemcomm, 2016).
Each block holds one compound with its values, some of them ahead of it. The source made the active and inactive calls. The rule behind the calls is not given here.

Assays:
Type in all cases: protein-complex assay
[1] = target: DNA gyrase (Escherichia coli, UniProt P0AES4+P0AES6, S83W); test: (§1) Inhibition of Escherichia coli JMtacA/JMtacB DNA gyrase subunit A2B2 S83W mutant using relaxed pBR322 DNA as substrate incubated for 30 mins in presence of ATP by ethidium bromide staining based agarose gel electrophoresis
[2] = target: T1, DNA gyrase (Escherichia coli) (UniProt P0AES6+P0AES4); test: (§2) Inhibition of wild type Escherichia coli DNA gyrase subunit A2B2 using supercoiled pBR322 DNA as substrate assessed as stabilization of enzyme-DNA cleavage complex by measuring linear DNA bands at 10 to 100 uM incubated for 30 mins in presence of proteinase K/SDS and in absence of ATP by ethidium bromide staining based agarose gel electrophoresis
[3] = target: T1, DNA gyrase (Escherichia coli); test: as §2, with “1” for “10 to 100”
[4] = tested on: DNA gyrase (Escherichia coli), P0AES6+P0AES4 [UNDEFINED MUTATION]; test: as §1
[5] = target: T1, DNA gyrase (Escherichia coli); test: Inhibition of wild type Escherichia coli DNA gyrase subunit A2B2 at 100 uM using relaxed pBR322 DNA as substrate incubated for 30 mins in presence of ATP by ethidium bromide staining based agarose gel electrophoresis
[6] = tested on: DNA gyrase (Escherichia coli), P0AES6+P0AES4 [UNDEFINED MUTATION]; test: Inhibition of Escherichia coli JMtacA/JMtacB DNA gyrase subunit A2B2 S83W mutant at 50 to 300 uM using relaxed pBR322 DNA as substrate incubated for 30 mins in presence of ATP by ethidium bromide staining based agarose gel electrophoresis
[7] = tested on: DNA gyrase (Escherichia coli), P0AES6+P0AES4 [UNDEFINED MUTATION]; test: Inhibition of Escherichia coli JMtacA/JMtacB DNA gyrase subunit A2B2 S83W mutant at 25 uM using relaxed pBR322 DNA as substrate incubated for 30 mins in presence of ATP by ethidium bromide staining based agarose gel electrophoresis
[8] = target: T1, DNA gyrase (Escherichia coli); test: as §2, with “at 50” for “at 10”
[9] = target: DNA gyrase (Escherichia coli, UniProt P0AES4+P0AES6); test: Inhibition of wild type Escherichia coli DNA gyrase subunit A2B2 using relaxed pBR322 DNA as substrate incubated for 30 mins in presence of ATP by ethidium bromide staining based agarose gel electrophoresis
[10] = tested on: DNA gyrase (Escherichia coli), P0AES6+P0AES4 [UNDEFINED MUTATION]; test: Inhibition of Escherichia coli JMtacA/JMtacB DNA gyrase subunit A2B2 S83W mutant at 50 uM using relaxed pBR322 DNA as substrate incubated for 30 mins in presence of ATP by ethidium bromide staining based agarose gel electrophoresis
[11] = target: T1, DNA gyrase (Escherichia coli); test: as §2, with “at” for “at 10 to”
[12] = tested on: DNA gyrase (Escherichia coli), P0AES6+P0AES4 [UNDEFINED MUTATION]; test: Inhibition of Escherichia coli JMtacA/JMtacB DNA gyrase subunit A2B2 S83W mutant at 100 uM using relaxed pBR322 DNA as substrate incubated for 30 mins in presence of ATP by ethidium bromide staining based agarose gel electrophoresis

Compound: O=C(CCCCCCCCC(=O)N1CCN(c2cc3c(cc2F)c(=O)c(C(=O)O)cn3C2CC2)CC1)Nc1cc2ccccc2oc1=O
IC50 [1]: 3 µM
inhibition [2]: Active

inhibition [3]: inactive
Compound: CC(=O)O[C@@H]1[C@@H](C)O[C@@H](c2ccc3c(c2O)[C@@H](O)[C@]24O[C@@]2(C3=O)[C@@]2(O)C(=O)C=C(C)C[C@@]2(O)C[C@@H]4O)C[C@H]1OC(=O)/C=C/C=C/C=C/C=C/C(=O)Nc1c(O)c2ccc(O)c(Cl)c2oc1=O

Compound: CCOC(=O)c1cn(C2CC2)c2cc(N3CCN(C(=O)CCCCCCCCC(=O)Nc4ccccc4)CC3)c(F)cc2c1=O
inhibition [4]: inactive
inhibition [5]: inactive

inhibition [6]: inactive
Compound: Nc1cc2ccccc2oc1=O

Compound: CCOC(=O)c1cn(C2CC2)c2cc(N3CCN(C(=O)CCCCCCCCC(=O)Nc4cc5ccccc5oc4=O)CC3)c(F)cc2c1=O
inhibition [4]: inactive
inhibition [5]: inactive

inhibition [7]: inactive
inhibition [8]: Active
Compound: O=C(O)CCCCCCCCC(=O)N1CCN(c2cc3c(cc2F)c(=O)c(C(=O)O)cn3C2CC2)CC1

Compound: COC(=O)/C=C/C=C/C=C/C=C/C(=O)Nc1c(O)c2ccc(O)c(Cl)c2oc1=O
IC50 [1]: 70 µM

Compound: CCOC(=O)c1cn(C2CC2)c2cc(N3CCNCC3)c(F)cc2c1=O [CIPROFLOXACIN ETHYL ESTER]
IC50 [9]: 10 µM
inhibition [4]: Active

inhibition [10]: inactive
Compound: CC(=O)Nc1cc2ccccc2oc1=O

inhibition [11]: Active
inhibition [12]: inactive
Compound: O=C(CCCCCCCCC(=O)N1CCN(c2cc3c(cc2F)c(=O)c(C(=O)O)cn3C2CC2)CC1)Nc1ccccc1

Compound: CCOC(=O)c1cn(C2CC2)c2cc(N3CCN(C(=O)CCCCCCCCC(=O)OC)CC3)c(F)cc2c1=O
inhibition [4]: inactive
inhibition [5]: inactive

Compound: CC(=O)O[C@@H]1[C@@H](C)O[C@@H](c2ccc3c(c2O)[C@@H](O)[C@]24O[C@@]2(C3=O)[C@@]2(O)C(=O)C=C(C)C[C@@]2(O)C[C@@H]4O)C[C@H]1OC(=O)/C=C/C=C/C=C/C=C/C(=O)O
IC50 [1]: 50 µM
